Measured values: publication PMC10458236, “QSAR and Chemical Read-Across Analysis of 370 Potential MGMT Inactivators to Identify the Structural Features Influencing Inactivation Potency” (Pharmaceutics, 2023)

Biological target: T1, human recombinant MGMT (O^6-methylguanine-DNA methyltransferase) (Homo sapiens, UniProt P16455)
T1 construct: recombinant
T1 sequence (P16455 1-207): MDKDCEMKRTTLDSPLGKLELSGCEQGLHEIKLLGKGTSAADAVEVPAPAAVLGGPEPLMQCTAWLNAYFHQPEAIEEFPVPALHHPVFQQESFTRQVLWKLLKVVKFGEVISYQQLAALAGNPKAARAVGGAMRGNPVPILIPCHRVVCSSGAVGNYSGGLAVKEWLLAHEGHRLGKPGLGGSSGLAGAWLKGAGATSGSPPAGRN
Assay: [3H]-methylated-DNA MGMT inactivation assay
Format: biochemical

| IC50 | SMILES |
| --- | --- |
| 3.02 nM | N#Cc1csc(COc2nc(N)nc3[nH]cnc23)c1 [compound 90] |
| 2.82 nM | CCCOC(=O)n1cc2c(OCc3cc(Br)cs3)nc(N)nc2n1 [compound 411] |
